A short description of data set [1]: Cytotoxicity in 3T3-L1 cells. The note with it: mouse, read-out: cell viability. The class given is cell-based. The protocol: Prior to testing the PPARγ antagonist potential of isoquinolinoquinazolinones, their cytotoxicity in 3T3-L1 cells (normal cells) was examined. […] These two compounds were then tested for PPARγ inhibitory activity.
A further data set relates to 3T3-L1 cells. As to the kind of experiment: Expression of adipogenesis markers (immunoblotting, RT-PCR) in MDI-differentiated 3T3-L1 cells. The note with it: after MDI-induced differentiation. The class given is cell-based, mouse. The protocol:
PPARγ alone or together with CCAAT-enhancer-binding protein α (C/EBPα) regulates many adipocyte genes that are involved in creating and maintaining the adipocyte phenotype. To further analyze the effect of isoquinolinoquinazolinones on adipogenesis, the expression of the adipocyte marker genes (C/EBPα and PPARγ) was analyzed. The differentiation of 3T3-L1 cells into adipocytes was induced by incubating in MDI induction medium for 2 days followed by incubation in differentiation medium for an additional 6 days. After MDI-induced adipocyte differentiation of 3T3-L1 cells, adipogenic transcriptional factors were analyzed. The transcriptional factors C/EBPα and PPARγ were inhibited by 8n and 8o in terms of both protein (Fig. 2C,D) and RNA (Fig. 2E,F) levels.
Total cellular RNA was prepared using TRIzol reagent (Life Technologies) according to the manufacturer’s instructions. Random-primed cDNAs were synthesized from 1 μg of total RNA using Super-Script III First-Strand Synthesis System (Life Technologies). The following conditions were used for PCR: initial denaturation at 94 °C for 1 min; 28–30 cycles of denaturation at 94 °C for 30 s, annealing at a temperature optimized for each primer pair for 30 s, extension at 72 °C for 30 s; final extension at 72 °C for 5 min. […] RNA levels were quantified by image software, Multi Gauge, V3.0 (FUJIFILM).
At the end of differentiation, 3T3-L1 cells were washed with PBS and lysed in a lysis buffer (1% NP-40, 25 mM HEPES (pH 7.5), 10% glycerol, 150 mM NaCl, 25 mM NaF, 0.25% sodium deoxycholate, 1 mM EDTA, 1 mM Na3VO4, 10 μg/mL aprotinin, 10 μg/mL leupeptin, and 250 μM phenylmethanesulfonyl fluoride). […] Horseradish peroxidase-labeled secondary antibodies were detected and visualized using chemiluminescent western blotting reagent (Millipore). Protein expression levels were quantified by image software, Multi Gauge, V3.0 (FUJIFILM).

Usually viability stands for a per cent measure of how many cells are alive, often set against a control. The term melting point denotes the temperature of the solid-liquid transition. `COc1cc2cc3n(c(=O)c2cc1OC)CNc1ccc(Cl)cc1-3` [Compound 8n, 2-Chloro-10,11-dimethoxy-5H-isoquinolino[2,3-c]quinazolin-8(6H)-one] displayed a melting point of 193.5 to 194.6 °C. For the same molecule, the viability at 25 µM in data set [1] was over 70%. In addition, the “C/EBPα and PPARγ expression, protein and RNA levels” value in the data set with 3T3-L1 cells is listed as “inhibited”.
For the molecule `COc1cc2cc3n(c(=O)c2cc1OC)CNc1cc(Cl)ccc1-3` [Compound 8o, 3-Chloro-10,11-dimethoxy-5H-isoquinolino[2,3-c]quinazolin-8(6H)-one], the melting point is 228.7 to 230.5 °C. For the same molecule, the viability at 25 µM in data set [1] is over 70%. Also, in the data set with 3T3-L1 cells, the “C/EBPα and PPARγ expression, protein and RNA levels” value is “inhibited”; the “mRNA expression of adiponectin and fatty acid synthase (FAS)” value was “strongly reduced”.

These data come from PMC5046141, “Discovery of Isoquinolinoquinazolinones as a Novel Class of Potent PPARγ Antagonists with Anti-adipogenic Effects” (Scientific Reports, 2016).
